Experimental data: article PMC8706783 (Pharmaceutics, 2021)

Experiments:
[1] = target: T1, UGT1A1 (Homo sapiens, UniProt P22309); test: Enzyme inhibition assay, UGT1A1; type: in vitro ADME; settings: HLM; UGT1A1 SN38 glucuronidation; read-out: IC50
T1 construct: from tissue
T1 sequence (P22309 26-533): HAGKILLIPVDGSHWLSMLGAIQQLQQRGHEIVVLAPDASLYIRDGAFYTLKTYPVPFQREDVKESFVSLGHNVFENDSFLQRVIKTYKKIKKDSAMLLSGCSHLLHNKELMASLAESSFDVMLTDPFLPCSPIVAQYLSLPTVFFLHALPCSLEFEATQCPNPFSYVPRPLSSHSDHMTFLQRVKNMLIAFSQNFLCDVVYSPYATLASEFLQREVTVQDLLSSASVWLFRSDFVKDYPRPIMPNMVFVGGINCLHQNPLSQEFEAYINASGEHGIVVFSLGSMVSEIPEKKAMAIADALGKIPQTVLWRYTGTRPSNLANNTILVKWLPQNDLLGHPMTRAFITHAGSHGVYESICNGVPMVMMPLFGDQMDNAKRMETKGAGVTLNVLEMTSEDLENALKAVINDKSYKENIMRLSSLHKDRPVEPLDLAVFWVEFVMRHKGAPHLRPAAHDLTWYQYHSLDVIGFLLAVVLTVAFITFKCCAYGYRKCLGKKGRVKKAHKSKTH

[2] = target: T2, UGT1A9 (Homo sapiens, UniProt O60656); test: Enzyme inhibition assay, UGT1A9; type: in vitro ADME; design: from tissue; settings: HLM; UGT1A9 mycophenolic acid glucuronidation
T2 sequence (O60656 26-530): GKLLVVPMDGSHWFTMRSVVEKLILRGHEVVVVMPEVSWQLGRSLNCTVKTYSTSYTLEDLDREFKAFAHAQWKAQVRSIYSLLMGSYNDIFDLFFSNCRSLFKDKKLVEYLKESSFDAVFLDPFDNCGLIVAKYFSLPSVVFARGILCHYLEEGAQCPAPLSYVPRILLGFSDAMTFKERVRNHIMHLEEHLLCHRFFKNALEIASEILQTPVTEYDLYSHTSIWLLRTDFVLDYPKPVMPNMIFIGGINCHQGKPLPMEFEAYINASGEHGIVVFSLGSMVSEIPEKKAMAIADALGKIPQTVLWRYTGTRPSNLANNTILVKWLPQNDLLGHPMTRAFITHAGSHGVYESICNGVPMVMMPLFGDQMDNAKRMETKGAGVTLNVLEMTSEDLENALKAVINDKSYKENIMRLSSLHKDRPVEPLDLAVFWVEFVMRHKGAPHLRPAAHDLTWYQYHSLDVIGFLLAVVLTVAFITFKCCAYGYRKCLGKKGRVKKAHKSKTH

[3] = target: T3, UGT1A3 (Homo sapiens, UniProt P35503); test: Reaction phenotyping, rUGT1A3; settings: recombinant UGT1A3, pH 7.4
T3 sequence (P35503 29-534): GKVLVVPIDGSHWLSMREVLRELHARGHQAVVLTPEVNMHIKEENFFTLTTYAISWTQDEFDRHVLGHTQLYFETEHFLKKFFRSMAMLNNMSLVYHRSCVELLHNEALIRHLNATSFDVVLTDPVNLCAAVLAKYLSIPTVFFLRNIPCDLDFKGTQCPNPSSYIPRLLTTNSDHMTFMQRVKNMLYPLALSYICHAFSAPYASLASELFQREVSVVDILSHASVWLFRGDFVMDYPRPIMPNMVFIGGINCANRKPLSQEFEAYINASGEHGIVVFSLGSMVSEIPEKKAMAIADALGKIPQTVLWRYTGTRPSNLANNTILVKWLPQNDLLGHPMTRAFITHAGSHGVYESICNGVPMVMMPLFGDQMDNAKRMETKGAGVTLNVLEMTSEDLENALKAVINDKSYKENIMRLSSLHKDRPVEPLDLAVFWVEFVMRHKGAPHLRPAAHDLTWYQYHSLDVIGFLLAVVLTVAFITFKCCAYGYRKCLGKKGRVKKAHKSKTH

[4] = tested on: CYP2B6; test: Enzyme induction assay, CYP2B6 activity in primary human hepatocytes; settings: CYP2B6 bupropion hydroxylation, DPV 303 nM, phenobarbital 1 mM
[5] = target: T4, CYP1A1 (Homo sapiens, UniProt P04798); test: Enzyme inhibition assay, CYP1A1; type: in vitro ADME; design: purchased Xenotech LLC; settings: Recombinant CYP1A1; phenacetin-O-deethylation
T4 sequence (P04798 1-512): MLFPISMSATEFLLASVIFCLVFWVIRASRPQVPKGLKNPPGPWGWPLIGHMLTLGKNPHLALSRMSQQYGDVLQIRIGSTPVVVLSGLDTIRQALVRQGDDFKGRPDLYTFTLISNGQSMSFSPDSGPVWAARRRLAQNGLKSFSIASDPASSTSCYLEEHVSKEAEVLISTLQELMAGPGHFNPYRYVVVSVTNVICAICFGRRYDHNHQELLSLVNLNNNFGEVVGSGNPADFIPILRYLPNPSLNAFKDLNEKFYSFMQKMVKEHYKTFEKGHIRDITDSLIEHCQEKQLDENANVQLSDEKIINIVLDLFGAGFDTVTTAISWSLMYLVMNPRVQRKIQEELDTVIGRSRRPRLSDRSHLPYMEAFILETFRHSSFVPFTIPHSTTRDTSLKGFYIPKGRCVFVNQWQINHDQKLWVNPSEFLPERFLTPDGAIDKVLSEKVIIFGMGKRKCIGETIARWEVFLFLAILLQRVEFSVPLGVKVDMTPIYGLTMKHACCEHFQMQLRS

[6] = target: CYP2C19 (Homo sapiens, UniProt P33261); test: Enzyme inhibition assay, CYP2C19; settings: HLM; CYP2C19 S-mephenytoin 4′-hydroxylation
[7] = Reaction phenotyping, HLM with NADPH; type: in vitro ADME, human; settings: human, human liver microsomes, pH 7.4; HLM (Phase 1), Midazolam (1 µM); read-out: Known Substrate (% Remaining at 60 min)
[8] = target: CYP3A4 (Homo sapiens, UniProt P08684); test: Reaction phenotyping, rCYP3A4; settings: recombinant enzyme, pH 7.4
[9] = tested on: CYP1A2; test: Enzyme induction assay, CYP1A2 activity in primary human hepatocytes; type: in vitro ADME; settings: plated cryopreserved primary human hepatocytes, O-deethylation
[10] = target: rUGT1A1 (Homo sapiens, UniProt P22309); test: Reaction phenotyping, rUGT1A1; settings: rUGT1A1, SN38 (0.5 µM)
[11] = target: T5, UGT2B7 (Homo sapiens, UniProt P16662); test: Enzyme inhibition assay, UGT2B7; type: in vitro ADME; design: from tissue; settings: HLM; UGT2B7 zidovudine glucuronidation
T5 sequence (P16662 24-529): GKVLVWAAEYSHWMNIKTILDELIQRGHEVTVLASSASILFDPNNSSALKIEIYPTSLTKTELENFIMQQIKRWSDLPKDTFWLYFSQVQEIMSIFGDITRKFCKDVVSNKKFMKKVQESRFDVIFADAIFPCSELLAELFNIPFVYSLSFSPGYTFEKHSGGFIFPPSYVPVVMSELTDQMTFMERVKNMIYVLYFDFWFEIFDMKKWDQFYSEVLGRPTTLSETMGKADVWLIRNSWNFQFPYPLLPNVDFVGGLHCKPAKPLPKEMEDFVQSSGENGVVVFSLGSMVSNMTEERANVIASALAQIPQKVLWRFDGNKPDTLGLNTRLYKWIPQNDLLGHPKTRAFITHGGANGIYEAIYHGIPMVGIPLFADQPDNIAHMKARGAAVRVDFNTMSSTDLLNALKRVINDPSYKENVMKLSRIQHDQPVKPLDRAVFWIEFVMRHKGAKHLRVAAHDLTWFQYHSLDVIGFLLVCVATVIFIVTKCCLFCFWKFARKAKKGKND

[12] = target: T6, UGT1A7 (Homo sapiens, UniProt Q9HAW7); test: Enzyme inhibition assay, UGT1A7
T6 sequence (Q9HAW7 26-530): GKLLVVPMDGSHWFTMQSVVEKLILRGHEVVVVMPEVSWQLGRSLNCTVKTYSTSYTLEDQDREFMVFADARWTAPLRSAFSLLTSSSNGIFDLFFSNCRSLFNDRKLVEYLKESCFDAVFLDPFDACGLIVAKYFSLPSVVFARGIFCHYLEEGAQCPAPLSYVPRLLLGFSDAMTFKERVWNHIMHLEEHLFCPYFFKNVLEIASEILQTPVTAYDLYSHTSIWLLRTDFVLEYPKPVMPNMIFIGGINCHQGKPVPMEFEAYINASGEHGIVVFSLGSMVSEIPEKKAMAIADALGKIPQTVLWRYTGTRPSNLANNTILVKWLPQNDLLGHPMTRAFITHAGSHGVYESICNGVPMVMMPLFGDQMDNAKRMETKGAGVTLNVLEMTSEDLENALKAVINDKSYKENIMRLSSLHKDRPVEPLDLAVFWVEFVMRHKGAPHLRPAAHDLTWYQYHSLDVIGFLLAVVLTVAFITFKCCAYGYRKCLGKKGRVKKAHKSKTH

[13] = target: T7, UGT1A8 (Homo sapiens, UniProt Q9HAW9); test: Enzyme inhibition assay, UGT1A8
T7 sequence (Q9HAW9 26-530): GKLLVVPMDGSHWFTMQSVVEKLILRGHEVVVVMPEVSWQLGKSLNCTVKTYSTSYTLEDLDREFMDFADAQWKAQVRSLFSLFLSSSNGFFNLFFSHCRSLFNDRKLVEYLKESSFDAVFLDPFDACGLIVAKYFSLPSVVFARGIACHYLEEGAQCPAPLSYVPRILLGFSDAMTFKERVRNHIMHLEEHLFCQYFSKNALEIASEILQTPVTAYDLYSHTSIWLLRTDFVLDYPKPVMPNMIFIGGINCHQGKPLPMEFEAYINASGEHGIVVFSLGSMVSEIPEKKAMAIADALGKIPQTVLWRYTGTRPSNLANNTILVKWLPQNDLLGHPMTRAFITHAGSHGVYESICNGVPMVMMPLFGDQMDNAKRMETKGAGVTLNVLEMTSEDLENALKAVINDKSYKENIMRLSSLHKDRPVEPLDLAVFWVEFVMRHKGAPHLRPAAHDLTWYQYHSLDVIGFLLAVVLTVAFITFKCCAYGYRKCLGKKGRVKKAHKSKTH

[14] = target: T8, UGT1A4 (Homo sapiens, UniProt P22310); test: Enzyme inhibition assay, UGT1A4
T8 sequence (P22310 29-534): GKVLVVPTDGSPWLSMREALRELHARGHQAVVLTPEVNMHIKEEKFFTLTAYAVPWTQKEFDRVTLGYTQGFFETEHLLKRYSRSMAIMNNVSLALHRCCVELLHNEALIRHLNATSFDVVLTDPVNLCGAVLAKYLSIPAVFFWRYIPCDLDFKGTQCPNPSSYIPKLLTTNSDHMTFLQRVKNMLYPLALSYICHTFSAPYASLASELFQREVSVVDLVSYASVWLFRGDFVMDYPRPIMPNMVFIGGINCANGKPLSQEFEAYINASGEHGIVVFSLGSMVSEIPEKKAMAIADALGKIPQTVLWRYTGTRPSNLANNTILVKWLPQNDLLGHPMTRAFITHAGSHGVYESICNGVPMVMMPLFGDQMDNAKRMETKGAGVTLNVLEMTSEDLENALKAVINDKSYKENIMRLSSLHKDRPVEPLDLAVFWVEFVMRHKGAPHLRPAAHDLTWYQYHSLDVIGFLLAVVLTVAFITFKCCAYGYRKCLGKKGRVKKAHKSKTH

Chain of CYP3A4 (P08684 whole entry): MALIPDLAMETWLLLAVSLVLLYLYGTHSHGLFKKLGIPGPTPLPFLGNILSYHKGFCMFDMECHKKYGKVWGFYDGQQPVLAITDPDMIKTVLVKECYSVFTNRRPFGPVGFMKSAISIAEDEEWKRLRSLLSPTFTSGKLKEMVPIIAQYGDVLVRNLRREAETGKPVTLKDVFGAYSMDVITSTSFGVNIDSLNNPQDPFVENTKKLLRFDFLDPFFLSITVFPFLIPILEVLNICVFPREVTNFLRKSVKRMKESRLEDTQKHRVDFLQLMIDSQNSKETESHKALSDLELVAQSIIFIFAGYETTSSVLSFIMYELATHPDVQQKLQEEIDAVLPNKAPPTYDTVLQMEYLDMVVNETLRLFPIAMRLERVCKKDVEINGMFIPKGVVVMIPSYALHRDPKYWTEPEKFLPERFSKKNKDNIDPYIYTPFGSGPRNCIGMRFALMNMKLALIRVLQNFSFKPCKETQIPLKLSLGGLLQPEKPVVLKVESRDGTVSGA
Chain of CYP2C19 (P33261 whole entry): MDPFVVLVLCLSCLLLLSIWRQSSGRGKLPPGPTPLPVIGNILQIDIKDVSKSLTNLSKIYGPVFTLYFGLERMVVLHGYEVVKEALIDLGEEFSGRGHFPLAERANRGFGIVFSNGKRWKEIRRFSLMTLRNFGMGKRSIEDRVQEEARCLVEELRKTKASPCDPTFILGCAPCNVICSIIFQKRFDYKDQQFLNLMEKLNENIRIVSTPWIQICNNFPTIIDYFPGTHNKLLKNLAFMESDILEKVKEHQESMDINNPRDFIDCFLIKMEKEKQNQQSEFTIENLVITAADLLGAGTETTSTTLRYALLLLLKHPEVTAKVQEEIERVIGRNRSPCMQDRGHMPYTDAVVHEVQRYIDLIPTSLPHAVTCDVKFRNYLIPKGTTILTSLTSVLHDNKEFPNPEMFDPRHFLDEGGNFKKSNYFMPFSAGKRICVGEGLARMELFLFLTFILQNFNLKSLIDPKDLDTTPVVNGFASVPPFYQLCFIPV

Structure (SMILES): COC(=O)N[C@H](C(=O)N[C@@H](Cc1ccccc1)[C@@H](O)CN(Cc1ccc(-c2ccccn2)cc1)NC(=O)[C@@H](NC(=O)OC)C(C)(C)C)C(C)(C)C [Atazanavir]
- IC50 [1]: 110 nM

Structure (SMILES): O=C(O)c1cccnc1Nc1cccc(C(F)(F)F)c1 [Niflumic acid]
- IC50 [2]: 150 nM

Structure (SMILES): C[C@H](CCC(=O)O)[C@H]1CC[C@H]2[C@@H]3[C@H](O)C[C@@H]4C[C@H](O)CC[C@]4(C)[C@H]3CC[C@]12C [Chenodeoxycholic acid]
- remaining at 1 h, 2 µM [3]: 59.4%

Structure (SMILES): CCC1(c2ccccc2)C(=O)NC(=O)NC1=O [Phenobarbital]
- fold induction at 72 h, 303 nM ([4]; donor HU2036, over negative control): 7.63 ± 0.82
- fold induction at 72 h, 303 nM ([4]; donor HU2068, over negative control): 6.43 ± 1.02
- fold induction at 72 h, 303 nM ([4]; donor HU8373, over negative control): 10.7 ± 0.61

Structure (SMILES): Cc1nc2c([nH]1)c(=O)n(C)c(=O)n2Cc1ccco1 [Furafylline]
- IC50 [5]: 4760 nM

Structure (SMILES): CCC1(c2ccccc2)C(=O)NC(=O)N(Cc2ccccc2)C1=O (single isomer, unassigned; (-)) [(-)-N-3-benzyl-phenobarbital]
- IC50 [6]: 148 nM

Structure (SMILES): Cc1ncc2n1-c1ccc(Cl)cc1C(c1ccccc1F)=NC2 [Midazolam]
- remaining at 1 h [7]: 0%
- remaining at 1 h, 1 µM [8]: 4.02%

Structure (SMILES): COc1ccc2[nH]c([S+]([O-])Cc3ncc(C)c(OC)c3C)nc2c1 (stereo not drawn) [Omeprazole]
- fold induction at 72 h, 303 nM ([9]; donor HU2036, probe phenacetin (100 µM)): 14 ± 2.43
- fold induction at 72 h, 303 nM ([9]; donor HU2068, probe phenacetin (100 µM)): 35.5 ± 2.03
- fold induction at 72 h, 303 nM ([9]; donor HU8373, probe phenacetin (100 µM)): 32.7 ± 6.67

Structure (SMILES): CCc1c2c(nc3ccc(O)cc13)-c1cc3c(c(=O)n1C2)COC(=O)[C@]3(O)CC [SN38]
- Known Substrate (% Remaining at 60 min) [10]: SN38 (74.87) %

Structure (SMILES): OC(Cn1cncn1)(Cn1cncn1)c1ccc(F)cc1F [Fluconazole]
- IC50 [11]: 712000 nM

Structure (SMILES): O=c1cc(-c2ccc(O)c(-c3c(O)cc(O)c4c(=O)cc(-c5ccc(O)cc5)oc34)c2)oc2cc(O)cc(O)c12 [Amentoflavone]
- IC50 [12]: 46.1 nM
- IC50 [13]: 5570 nM

Structure (SMILES): C[C@@H]1CC[C@@]2(OC1)O[C@H]1C[C@H]3[C@@H]4CC[C@H]5C[C@@H](O)CC[C@]5(C)[C@H]4CC(=O)[C@]3(C)[C@H]1[C@@H]2C [Hecogenin]
- IC50 [14]: 960 nM
